Series [1] relates to RAW 264.7 cells. The experiment in a line: LPS-induced TNF-α secretion from RAW 264.7 cells (ELISA). Conditions: compound 1 micromolar, LPS 10 ng/ml for 6 hrs; FIG. 3. It is filed as cell-based, murine. As for the experimental part:
FIG. 3. […] To obtain the data summarized in FIG. 3, RAW […] cells were incubated with Scrims (compounds of present invention) (1 uM), PI3K inhibitor positive control (LY-294002; 25 uM) or vehicle (DMSO) for 1 hr. LPS (10 ng/ml) was added to the medium. 6 hrs post LPS administration medium was collected and analyzed for TNFa levels using ELISA.
In vitro anti-inflammatory activity in RAW 264.7 cells (murine leukaemic monocyte macrophage cell line): Lipopolysaccharide (LPS)-induced secretion of cytokines from RAW cells is a recognized in vitro assay for anti-inflammatory drugs. The anti-inflammatory activities of C1-1, C1-2, C1-3, C1-4, and C1-5 in the RAW cell model. RAW cells exposed to LPS were incubated with each of the five molecules at 1 micromolar concentration. The PIK3 inhibitor LY-294002 was used at 25 micromolar as a positive control. […] LPS was administered at 10 ng/ml for 6-hrs. TNF-α levels were quantified by ELISA assay. Results are presented as % of control with standard deviations of three replicates.
In general terms: ELISA stands for enzyme-linked immunosorbent assay.

Series [2] has as its system mice exposed to cigarette smoke. Description: cigarette smoke-induced inflammation of mouse lungs. The series is classed as in vivo. Conditions: ip 5 mg/kg. On the procedure: FIG. 4. […] To obtain the data summarized in FIG. 4, Mice were exposed to cigarette smoke or filtered air for 3 consecutive days. They were treated ip with vehicle or Cob 1-2 (5 mg/kg) in DMSO: 1 group was treated daily during smoke exposure period and 1 group was pre-treated with 2 doses per week during the week prior to the smoke exposure and daily during the smoke exposure. On day 4, mice were sacrificed. Their lungs were washed and BAL fluid was stained for Europhiles count. The lungs were homogenized for ELISA quantifying MCP-1 levels.
In vivo prevention of cigarette smoke-induced inflammation of mouse lungs: Exposing mice to cigarette smoke induces an acute inflammatory response in the lungs. Cigarette smoke-induced inflammation in the lungs was assessed by quantifying the ratio of macrophages to Europhiles in bronchoalveolar lavage fluid (BALF), and levels of pro-inflammatory markers such as MCP-1 in lung tissue (Yao H, Edirisinghe I, Rajendrasozhan S, Yang S R, Caito S, Adenuga D, Rahman I. Cigarette smoke-mediated inflammatory and oxidative responses are strain-dependent in mice. Am. J. Physiol Lung Cell Mol Physiol 2008; 294: L1174-L1186.).

The test system of series [3] is DeaD strain BB579. Description: yeast Death of Daughters (DeaD) lifespan assay, reversal of nicotinamide (NAM) lifespan shortening. The series is classed as cell-based, S. cerevisiae (yeast). The conditions noted are these: Saccharomyces cerevisiae, BB579, read-out: C50 (concentration that yields half the maximal activity) by DeaD assay. As for the experimental part: The C50 (50% maximal activity) is a measure of the efficacy of a compound as a LAC and is determined by quantifying the dose-response curve for each LAC by DeaD assay in the presence and absence of nicotinamide. The C50 is the concentration of LAC that yields half the maximal activity. Dose response curves will generally peak and then decline. The decline is most likely due to toxicity at higher LAC concentrations. The C50 is determined relative to the maximal lifespan extension (the peak value). C50 values are provided for C1-5.
The compounds listed in Table 1 of Example 3 were assessed for their anti-aging activities using the yeast Death of Daughters (DeaD) explicative lifespan assay. Specifically, the compounds were assessed for their capacity to reverse the lifespan shortening effect of exogenous nicotinamide (NAM), which is a known inhibitor of the anti-aging protein Sir2p (Anderson et al., 2003; Bitterman et al., 2002). These compounds were compared to the activities of known cluster 1 compounds, S3-5, and #3-11.
“Activity” here is defined herein as the fold improvement in DeaD lifespan in the presence of 0.75 mM NAM relative to lifespan in the absence of cluster 1 compounds, over a range of compound concentrations between 0.5 nm-1 μm. This “activity” value is a means of assessing the usefulness of a compound as a LAC. The assays were performed as follows. DeaD strain BB579 was grown overnight in a permissive (galactose-containing) medium to mid-log phase, and then diluted to an OD600 of 0.0001 in restrictive (glucose-containing) medium with 0.75 mM NAM and the compound to be tested. Cells were then incubated at 30° C. for 3 days, with shaking and OD600 measurement every 20 minutes. The OD600 reading after 60 hours in restrictive medium, normalized to the same measurement for the “no drug” control, was used as the number for comparison.
Five of the compounds with higher activity than S3-5 were selected for further study and were designated C1-1, C1-2, C1-3, C1-4, and C1-5 (see Table 2, Example 4). All data in FIGS. 1A(1)-(6) are from media containing 0.75 mM NAM. Note the different ranges of the X axes in FIGS. 1A(1)-(6)—very different C50 values for the compounds of the present invention compared the known C1 cluster compounds. […] All five had C50 values below 50 nM, while the C50 value for S3-5 was about 650 nM, and the C50 for S1-9 was about 350 nM.

Series [4] relates to strain FY839 (healthy wild-type). Description: Toxicity of compounds by yeast growth assay. The conditions noted are these: FY839, inset in FIG. 2. The series is classed as cell-based. On the procedure:
The toxicity of compounds C1-1, C1-2, C1-3, C1-4, and C1-5 in yeast was assessed by determining their effects on growth of a wild-type yeast strain. FIG. 2 is a graphical representation of the toxicity data. The yeast used was strain FY839 (healthy wild-type) growing in SCD. At 12 hours all were in log phase. […] This concentration is many-fold higher than the effective concentrations of these compounds as assessed by DeaD lifespan assays.

The subject of series [5] is TNF-α-treated mice. Description: TNF-α-induced vascular inflammation in mice (leukocyte rolling in mesenteric vessels). It is filed as in vivo, mouse. The conditions noted are these: ip 6 mg/kg once (1 hour) or twice (24 hours and 1 hour) prior to TNF-α; compared to TNF-α-treated control mice; FIG. 5. On the procedure: FIG. 5. Graphical results showing in vivo reduction of TNF-α-induced vascular inflammation in mice. To obtain the data summarized in FIG. 5, mice (3 each group) were injected with vehicle or Cob 1-2 (ip, 6 mg/kg in DMSO). Two treatments were used: i) 1 dose an hour before TNFa and, ii) 2 doses (24 hrs and 1 hr before TNFa ). TNFa was administered ip (20 ug/kg). 3 hours post TNFa administration, mice were anesthetized, their mesentery was exposed and placed on an inverted fluorescent microscope stage. Lymphocyte velocities within veins was determined by analyzing video recordings
In vivo reduction of TNF-α-induced vascular inflammation in mice: The affects of drugs on vascular inflammation can be assessed by quantifying the rates of leukocytes rolling in mouse mesenteric vessels following intraperitoneal administration of TNF-α (Craig N. Morrell, Kenji Matsushita, and Charles J. Lowenstein. A Novel Inhibitor of N-Ethylmaleimide-Sensitive Factor Decreases Leukocyte Trafficking and Peritonitis. JPET 2005; 314:155-161). Vascular inflammation was induced in two groups of mice that were treated with C1-2 either once (1 hour) or twice (24 hours and 1 hour) prior to TNF-α administration.

Some results are limits rather than exact numbers.

For `CCC(=O)C1C(=O)CC(c2ccc(F)cc2)CC1=O` (stereo not drawn) [SRI# 22790, 1,3-cyclohexanedione, 2-propanoyl-5-[4-fluorophenyl]-], the “reduction of secreted TNF-α relative to vehicle treated cells” value in series [1] is “exhibited anti-inflammatory activity”. Further, the “total Europhiles count in BAL fluid” value in series [2] (3 days smoke exposure, FIG. 4A) is “lowered total Europhiles count to near background levels”. Also, in series [2] (lung homogenate ELISA, FIG. 4B), the “MCP-1 levels in lungs” value is on record as “decreased in a statistically significant fashion”. The EC50 in series [3] was < 50 nM. Further, the “toxic effects on growth at concentrations below 1 μM” value in series [4] is “little or no toxic effects on growth”. Further, in series [5], the “leukocytes velocity in mesenteric vessels” value is “significantly increased leukocytes velocity”.
As for `CCC(=O)C1C(=O)CC(C2CCCCC2)CC1=O` (stereo not drawn) [SRI# 22788, 1,3-cyclohexanedione, 2-propanoyl-5-cyclohexyl-], the “reduction of secreted TNF-α relative to vehicle treated cells” value in series [1] is “exhibited anti-inflammatory activity”. In series [3], the EC50 is < 50 nM. Moreover, the “toxic effects on growth at concentrations below 1 μM” value in series [4] was “little or no toxic effects on growth”.
The corresponding values for `CC(=O)C1C(=O)CC(c2cccs2)CC1=O` (stereo not drawn) [SRI# 22933, 1,3-cyclohexanedione, 2-acetyl 5-[thien-2-yl]-] are “exhibited anti-inflammatory activity”, < 50 nM and “little or no toxic effects on growth”.
